The text below walks through data of patent US20250214999A1, “HETEROCYCLIC GLP-1 AGONISTS” (Gasherbrum Bio, Inc., priority 2020, published 2025).

The target of the first series is GLP-1 Receptor (Homo sapiens (Human), UniProt P43220). Nature of the series: GLP-1R agonist cAMP stimulation assay (HEK293/GLP1R/CRE-LUC cells). The format is cell-based. The following applies: 30 min incubation, read-out: GLP1R cAMP Stimulation DR: EC50. As to the method: Activation of GLP-1 receptor is known to stimulate cyclic AMP (cAMP) production in cells which indicates primary coupling to the Gαs subunit of the G protein heterotrimeric complex.
Sequence of GLP-1 Receptor (P43220 24-463): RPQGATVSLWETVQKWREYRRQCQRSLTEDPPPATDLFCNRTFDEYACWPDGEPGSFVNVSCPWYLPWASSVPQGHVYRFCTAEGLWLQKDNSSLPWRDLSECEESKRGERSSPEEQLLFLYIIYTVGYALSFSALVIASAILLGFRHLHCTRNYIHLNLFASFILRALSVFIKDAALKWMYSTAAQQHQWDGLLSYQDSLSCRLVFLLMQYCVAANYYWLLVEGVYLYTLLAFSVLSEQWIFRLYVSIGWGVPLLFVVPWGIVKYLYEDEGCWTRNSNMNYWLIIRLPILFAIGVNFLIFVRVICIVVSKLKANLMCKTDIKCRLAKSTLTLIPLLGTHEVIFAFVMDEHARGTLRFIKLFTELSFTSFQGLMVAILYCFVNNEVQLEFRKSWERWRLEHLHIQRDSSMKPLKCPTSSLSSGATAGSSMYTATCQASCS
To optimize functional activity directed toward Gαs coupling, a HEK293/CRELuc cell line developed by HDB stably expressing the GLP-1 Receptor was used. 200× concentration of compound working solutions were prepared (Agilent Technologies Bravo) with 1/2 log serial dilution in 384-well Echo LDV plate (Labcyte, Cat #LP-0200). 50 nL/well 200× concentration of compound working solutions were moved to 384-well white low volume plate (Greiner, Cat #784075) using Labcyte ECHO550. 1×10^5 cells/mL HEK293/GLP1R/CRE-LUC (HD Biosciences) cell suspensions prepared with assay buffer [DPBS containing 0.5 mM IBMX (Sigma,Cat #I5879) and 0.1% BSA (GENVIEW, Cat #FA016-100 g)], 10 uL cell suspensions were added to each well of previous generated assay plate which already contains 50 nl compound at 200× concentration using ThermoFisher Multidrop Combi (1000cells/well). Seal the plate and incubate at 37° C. with 5% CO2 for 30 min.
After incubation the CAMP assay signal was generated using cAMP dynamic 2 Kit (Cisbio). 5 μL cAMP-d2 working solution was added to each well, followed with 5 μL Anti-cAMP antibody-cryptate working solution added to each well using ThermoFisher Multidrop Combi. Incubate at room temperature for 1 hour protected from light. Read the fluorescence at 665 and 615 nm with Reader PerkinElmer En Vision.
`N#Cc1ccc([C@H]2COc3c(cccc3C3CCN(Cc4nc5ccc(C(=O)O)nc5n4C[C@@H]4CCO4)CC3)O2)cc1` [Compound 118c, 2-((4-((S)-2-(4-cyanophenyl)-2,3-dihydrobenzo[b][1,4]dioxin-5-yl)piperidin-1-yl)methyl)-3-(((S)-oxetan-2-yl)methyl)-3H-imidazo[4,5-b]pyridine-5-carboxylic acid]: the EC50 was 20 to 200 nM.

Regarding `O=C(O)c1ccc2nc(CN3CCC(c4cccc5c4OCC(c4ccc(Cl)cc4)O5)CC3)n(C[C@@H]3CCO3)c2c1` (stereo partly drawn) [Compound 115a, 2-((4-(2-(4-chlorophenyl)-2,3-dihydrobenzo[b][1,4]dioxin-5-yl)piperidin-1-yl)methyl)-1-(((S)-oxetan-2-yl)methyl)-1H-benzo[d]imidazole-6-carboxylic acid], the EC50 was at most 0.2 nM.

For the compound `O=C(O)c1ccc2nc(CN3CCC(c4cccc5c4OCC(c4ccc(C(F)(F)F)cc4)O5)CC3)n(C[C@@H]3CCO3)c2n1` (stereo partly drawn) [Compound 119a, 2-((4-(2-(4-(trifluoromethyl)phenyl)-2,3-dihydrobenzo[b][1,4]dioxin-5-yl)piperidin-1-yl)methyl)-3-(((S)-oxetan-2-yl)methyl)-3H-imidazo[4,5-b]pyridine-5-carboxylic acid], the EC50 was at most 0.2 nM.

On to `O=C(O)c1ccc2nc(CN3CCC(c4cccc5c4OC[C@H](c4ccc(Cl)cc4F)O5)CC3)n(C[C@@H]3CCO3)c2c1` [Compound 120c, 2-((4-((S)-2-(4-chloro-2-fluorophenyl)-2,3-dihydrobenzo[b][1,4]dioxin-5-yl)piperidin-1-yl)methyl)-1-((S)-oxetan-2-ylmethyl)-1H-benzo[d]imidazole-6-carboxylic acid], for which the EC50 was in the range of 20 to 200 nM.

Consider `O=C(O)c1ccc2nc(CN3CCC(c4cccc5c4OCC(c4ccc(Cl)cc4)O5)CC3)n(C[C@@H]3CCO3)c2n1` (stereo partly drawn) [Compound 111a, 2-((4-(2-(4-chlorophenyl)-2,3-dihydrobenzo[b][1,4]dioxin-5-yl)piperidin-1-yl)methyl)-3-(((S)-oxetan-2-yl)methyl)-3H-imidazo[4,5-b]pyridine-5-carboxylic acid], for which the 50% effective concentration (EC50) was at most 0.2 nM.

`O=C(O)c1ccc2nc(CN3CCC(c4cccc5c4OC[C@H](c4ccc(Cl)cc4)O5)CC3)n(C[C@@H]3CCO3)c2n1` [Compound 111c, 2-((4-((S)-2-(4-chlorophenyl)-2,3-dihydrobenzo[b][1,4]dioxin-5-yl)piperidin-1-yl)methyl)-3-(((S)-oxetan-2-yl)methyl)-3H-imidazo[4,5-b]pyridine-5-carboxylic acid]: the concentration for a half-maximal effect (EC50) lay in the range of 20 to 200 nM.

As for `O=C(O)c1ccc2nc(Cc3ccc(-c4cccc5c4OCC(c4ccc(Cl)cc4F)O5)cc3)n(C[C@@H]3CCO3)c2n1` (stereo in doubt) [Compound 107a, 2-[[4-[2-(4-chloro-2-fluoro-phenyl)-2,3-dihydro-1,4-benzodioxin-5-yl]phenyl]methyl]-3-(oxetan-2-ylmethyl)imidazo[4,5-b]pyridine-5-carboxylic acid], the EC50 lay in the range of 20 to 200 nM.

In the case of `O=C(O)c1ccc2nc(CN3CCC(c4cccc5c4OCC(c4ccc(Cl)cc4F)C5)CC3)n(C[C@@H]3CCO3)c2n1` (stereo partly drawn) [Compound 106a, 2-((4-(3-(4-chloro-2-fluorophenyl)chroman-8-yl)piperidin-1-yl)methyl)-3-(((S)-oxetan-2-yl)methyl)-3H-imidazo[4,5-b]pyridine-5-carboxylic acid], the EC50 lay within 0.2 to 20 nM.

With `O=C(O)c1ccc2nc(CN3CCC(c4cccc5c4OCC(c4ccccc4F)C5)CC3)n(C[C@@H]3CCO3)c2n1` (stereo partly drawn) [Compound 122a, 2-((4-(3-(2-fluorophenyl) Chroman-8-yl)piperidin-1-yl)methyl)-3-(((S)-oxetan-2-yl)methyl)-3H-imidazo[4,5-b]pyridine-5-carboxylic acid], the EC50 is 20 to 200 nM.

For the compound `O=C(O)c1ccc2nc(CN3CCC(c4cccc5c4OCC(c4ccc(Cl)c(F)c4)O5)CC3)n(C[C@@H]3CCO3)c2n1` (stereo partly drawn) [Compound 113a, 2-((4-(2-(4-chloro-3-fluorophenyl)-2,3-dihydrobenzo[b][1,4]dioxin-5-yl)piperidin-1-yl)methyl)-3-(((S)-oxetan-2-yl)methyl)-3H-imidazo[4,5-b]pyridine-5-carboxylic acid], the EC50 is 0.2 to 20 nM.

Regarding `O=C(O)c1ccc2nc(CN3CCC(c4cccc5c4OCC(c4cccc(Cl)c4)O5)CC3)n(C[C@@H]3CCO3)c2n1` (stereo partly drawn) [Compound 112a, 2-((4-(2-(3-chlorophenyl)-2,3-dihydrobenzo[b][1,4]dioxin-5-yl)piperidin-1-yl)methyl)-3-(((S)-oxetan-2-yl)methyl)-3H-imidazo[4,5-b]pyridine-5-carboxylic acid], the EC50 was 0.2 to 20 nM.

Turning to `O=C(O)c1ccc2nc(CN3CCC(c4cccc5c4OCC(c4ccccc4)C5)CC3)n(C[C@@H]3CCO3)c2n1` (stereo partly drawn) [Compound 103a, 3-(((S)-oxetan-2-yl)methyl)-2-((4-(3-phenylchroman-8-yl)piperidin-1-yl)methyl)-3Himidazo[4,5-b]pyridine-5-carboxylic acid], the half-maximal effective concentration (EC50) was 0.2 to 20 nM.

For `CC1(c2ccc(Cl)cc2F)COc2c(cccc2C2CCN(Cc3nc4ccc(C(=O)O)nc4n3C[C@@H]3CCO3)CC2)O1` (stereo partly drawn) [Compound 127a, 2-((4-(2-(4-chloro-2-fluorophenyl)-2-methyl-2,3-dihydrobenzo[b][1,4]dioxin-5-yl)piperidin-1-yl)methyl)-3-((S)-oxetan-2-ylmethyl)-3H-imidazo[4,5-b]pyridine-5-carboxylic acid], the concentration for a half-maximal effect (EC50) was in the range of 0.2 to 20 nM.

In the case of `O=C(O)c1ccc2nc(CN3CCC(c4cccc5c4OCC(c4ccccc4)O5)CC3)n(C[C@@H]3CCO3)c2n1` (stereo partly drawn) [Compound 101a, 3-((S)-oxetan-2-ylmethyl)-2-((4-(2-phenyl-2,3-dihydrobenzo[b][1,4]dioxin-5-yl)piperidin-1-yl)methyl)-3H-imidazo[4,5-b]pyridine-5-carboxylic acid], the EC50 lay within 0.2 to 20 nM.

For `CC1(c2ccc(Cl)cc2)COc2c(cccc2C2CCN(Cc3nc4ccc(C(=O)O)nc4n3C[C@@H]3CCO3)CC2)O1` (stereo partly drawn) [Compound 128a, 2-((4-(2-(4-chlorophenyl)-2-methyl-2,3-dihydrobenzo[b][1,4]dioxin-5-yl)piperidin-1-yl)methyl)-3-((S)-oxetan-2-ylmethyl)-3H-imidazo[4,5-b]pyridine-5-carboxylic acid], the EC50 lay in the range of 0.2 to 20 nM.

Turning to `O=C(O)c1ccc2nc(CN3CCC(c4cccc5c4OC[C@@H](c4ccc(Cl)cc4F)O5)CC3)n(C[C@@H]3CCO3)c2n1` [Compound 104b, 2-((4-((R)-2-(4-chloro-2-fluorophenyl)-2,3-dihydrobenzo[b][1,4]dioxin-5-yl)piperidin-1-yl)methyl)-3-(((S)-oxetan-2-yl)methyl)-3H-imidazo[4,5-b]pyridine-5-carboxylic acid], the 50% effective concentration (EC50) was 0.2 to 20 nM.

Take `O=C(O)c1ccc2nc(CN3CCC(c4cccc5c4OC[C@@H](c4ccc(Cl)cc4F)O5)CC3)n(C[C@@H]3CCO3)c2c1` [Compound 120b, 2-((4-((R)-2-(4-chloro-2-fluorophenyl)-2,3-dihydrobenzo[b][1,4]dioxin-5-yl)piperidin-1-yl)methyl)-1-((S)-oxetan-2-ylmethyl)-1H-benzo[d]imidazole-6-carboxylic acid]: the half-maximal effective concentration (EC50) was 0.2 to 20 nM.

`O=C(O)c1ccc2nc(CN3CCC(c4cccc5c4OCC(c4ccccc4F)N5)CC3)n(C[C@@H]3CCO3)c2n1` (stereo partly drawn) [Compound 125a, 2-((4-(3-(2-fluorophenyl)-3,4-dihydro-2H-benzo[b][1,4]oxazin-8-yl)piperidin-1-yl)methyl)-3-(((S)-oxetan-2-yl)methyl)-3H-imidazo[4,5-b]pyridine-5-carboxylic acid]: the EC50 lay in the range of 20 to 200 nM.

System in the next series: not listed separately
Nature of the series: Nonhuman primate (NHP) pharmacokinetics (PK) study. The following applies: cynomolgus monkey, plasma, 1 mg/kg; male NHP, oral (PO), Dose 1. The class given is in vivo, cynomolgus monkey. On the procedure: Pharmacokinetics (PK) study was conducted on male NHP (e.g. cynomolgus monkey) by two delivery routes intravenous (IV) and/or oral gavage (PO). NHP in IV route (n=3) were free access to food and water. NHP in PO route (n=3) were fasted overnight and fed at 4 hrs post dosing. Test article was formulated in solution for IV route and solution or suspension for PO route, respectively.
On the day of experiment, test article was administered via vein (e.g. cephalic vein) injection (commonly at 0.2 to 1 mg/kg and 1 to 2 mL/kg) for IV route or via oral gavage (commonly at 1 to 100 mg/kg and 2 to 10 mL/kg) for PO route, respectively.
Blood samples were collected via serial bleeding at ˜8 time points from 0.083 to 24 hours post dose. Approximate 500 μL of blood/time point was collected into EDTA-K2 tube via cephalic or saphenous vein. Blood samples were put on wet ice and centrifuged to obtain plasma samples and plasma samples were submitted to LCMS/MS for sample analysis.
Pharmacokinetics parameters, including maximum plasma concentration (Cmax), time to reach maximum plasma concentration (Tmax), area under the curve (AUC0-4) and oral bioavailability (F%), etc., were calculated by non-compartmental model using WinNonlin.
Exemplary compounds of Formula I (e.g., certain compounds of Formula IB (e.g., Formula IB-1)) were tested using the protocol above. Reference compound REF1 was tested as a control compound.
In the case of `N#Cc1ccc(COc2cccc(C3CCN(Cc4nc5ccc(C(=O)O)cc5n4C[C@@H]4CCO4)CC3)n2)c(F)c1` [REF1], the time to peak (Tmax) is 5.33 h.

Staying with this series, now noted: cynomolgus monkey, plasma; male NHP, oral bioavailability.
As to `N#Cc1ccc(COc2cccc(C3CCN(Cc4nc5ccc(C(=O)O)cc5n4C[C@@H]4CCO4)CC3)n2)c(F)c1` [REF1], the bioavailability was 3.14%.

The series is the same for the next values; noted with them: male NHP, oral (PO), Dose 1.
Compound `N#Cc1ccc(COc2cccc(C3CCN(Cc4nc5ccc(C(=O)O)cc5n4C[C@@H]4CCO4)CC3)n2)c(F)c1` [REF1] returned an AUC0-24 h of 362 arbitrary unit and a Cmax of 36.0 arbitrary unit.

The term EC50 denotes the concentration that produces a half-maximal response. Broadly, the Tmax is the time at which the peak concentration occurs. The term bioavailability denotes dose-corrected exposure relative to a reference, in per cent.
